Read-outs that look alike come from different tables or passages of the source.
What was measured:
[1] = Plasma concentrations of vanoxerine and its hydroxyl metabolites in patients after a 300 mg dose of vanoxerine (LC-MS/MS); format: in vivo, human; conditions: 300 mg vanoxerine; for Concentrations (plasma), average: all 25 patients; for High concentration group average (plasma concentration): high concentration group (10 patients); for Low concentration group average (plasma concentration): low concentration group (15 patients)
Protocol: Each patient gave blood samples before administration of their dose, and then again at nine further time points, 30 minutes after admiration, 1, 2, 3, 4, 6, 8, 12, and 24 hours post administration.
Samples: A total of 270 human plasma samples were received (in duplicate). The samples were shipped frozen over dry ice. The samples were stored at −70° C. (nominal) until analysis.
Frozen samples were thawed at room temperature. Samples, calibrators, QC samples, sample blanks (blank plasma) and reagent blanks (water) were processed at room temperature. To 200 μL aliquots of each sample, calibrator, and QC sample are added 20 μL of 500 ng/mL of internal standard solution. A sample blank (blank plasma) and reagent blank (water) were also prepared, but without addition of internal standard solution (20 μL of diluent was added instead). To each sample, 200 μL of 1% ammonium hydroxide solution were added and vortex mixed. 3.0 mL of methyl tert-butyl ether were added and then vortex mix for 30 seconds. The sample is then centrifuged for 5 minutes at 4000 rpm and then transferred for about 30 minutes at −70° C. (nominal). The upper (organic) layer was transferred into an evaporation tubes and then evaporated under N2 stream at ˜50° C. for about 20 min. Samples were then reconstituted in 1000 μL reconstitution solution (80:20:0.1 water: acetonitrile: formic acid). Samples were mixed, allow to stand for about 3 minutes and mixed again. 900 μL of the sample solution was transferred to a 1.5 mL microcentrifuge tube and centrifuged for 5 minutes at 14000 rpm at room temperature. 800 μL of the sample solution was transferred to a glass autosampler vial, and then transferred to the autosampler for analysis. Samples were separated using reversed-phase liquid chromatography with a C18 column.
Detection was based on electro-spray interface in positive mode (ESI+) LC-MS/MS technique, using Micromass Quattro Premier XE MS/MS detector with MassLynx and QuanLynx software version 4.1. […] The MRM transition for all hydroxyl metabolites was m/z 467→203.

[2] = healthy subjects, cited from earlier work
[3] = 1 h post administration, 1.00 = below LLOQ
[4] = 2 h post administration, 1.00 = below LLOQ
[5] = 3 h post administration, 1.00 = below LLOQ
[6] = 4 h post administration, 1.00 = below LLOQ
[7] = 6 h post administration, 1.00 = below LLOQ
[8] = 8 h post administration, 1.00 = below LLOQ
[9] = 12 h post administration, 1.00 = below LLOQ
[10] = 24 h post administration, 1.00 = below LLOQ
[11] = .5 h post administration, 1.00 = below LLOQ
[12] = time -15 (before administration), 1.00 = below LLOQ

Compound	Concentrations (plasma), average [1, 3]	Concentrations (plasma), average [1, 4]	Concentrations (plasma), average [1, 5]	Concentrations (plasma), average [1, 6]	Concentrations (plasma), average [1, 7]	Concentrations (plasma), average [1, 8]	Concentrations (plasma), average [1, 9]	Concentrations (plasma), average [1, 10]	Concentrations (plasma), average [1, 11]	Concentrations (plasma), average [1, 12]	High concentration group average (plasma concentration) [1, 3]	High concentration group average (plasma concentration) [1, 4]	High concentration group average (plasma concentration) [1, 5]	High concentration group average (plasma concentration) [1, 6]	High concentration group average (plasma concentration) [1, 7]	High concentration group average (plasma concentration) [1, 8]	High concentration group average (plasma concentration) [1, 9]	High concentration group average (plasma concentration) ([1]; 24 h post administration)	High concentration group average (plasma concentration) [1, 11]	High concentration group average (plasma concentration) [1, 12]	other results
16-hydroxyl vanoxerine [M02]	1.02 ng/mL	1.02 ng/mL	1.01 ng/mL	1.01 ng/mL	1.00 ng/mL	1.00 ng/mL	1.00 ng/mL	1.00 ng/mL	1.00 ng/mL	1.00 ng/mL	1.00 ng/mL	1.05 ng/mL	1.03 ng/mL	1.02 ng/mL	1.00 ng/mL	1.00 ng/mL	1.00 ng/mL	0.00 ng/mL	1.00 ng/mL	1.00 ng/mL	Low concentration group average (plasma concentration) [1, 3]: 1.03 ng/mL; Low concentration group average (plasma concentration) [1, 4]: 1.00 ng/mL; Low concentration group average (plasma concentration) [1, 5]: 1.00 ng/mL; Low concentration group average (plasma concentration) [1, 6]: 1.00 ng/mL; Low concentration group average (plasma concentration) [1, 7]: 1.00 ng/mL; Low concentration group average (plasma concentration) [1, 8]: 1.00 ng/mL; Low concentration group average (plasma concentration) [1, 9]: 1.00 ng/mL; Low concentration group average (plasma concentration) [1, 10]: 1.00 ng/mL; Low concentration group average (plasma concentration) [1, 11]: 1.00 ng/mL; Low concentration group average (plasma concentration) [1, 12]: 1.00 ng/mL
17-hydroxyl vanoxerine [M01]	7.51 ng/mL	19.65 ng/mL	18.68 ng/mL	16.42 ng/mL	11.48 ng/mL	8.98 ng/mL	6.30 ng/mL	3.66 ng/mL	1.93 ng/mL	1.00 ng/mL	8.64 ng/mL	28.00 ng/mL	29.64 ng/mL	24.93 ng/mL	18.08 ng/mL	14.50 ng/mL	9.98 ng/mL	1.72 ng/mL	2.55 ng/mL	1.00 ng/mL	Low concentration group average (plasma concentration) [1, 3]: 6.76 ng/mL; Low concentration group average (plasma concentration) [1, 4]: 14.09 ng/mL; Low concentration group average (plasma concentration) [1, 5]: 11.38 ng/mL; Low concentration group average (plasma concentration) [1, 6]: 10.34 ng/mL; Low concentration group average (plasma concentration) [1, 7]: 7.08 ng/mL; Low concentration group average (plasma concentration) [1, 8]: 5.30 ng/mL; Low concentration group average (plasma concentration) [1, 9]: 3.67 ng/mL; Low concentration group average (plasma concentration) [1, 10]: 2.66 ng/mL; Low concentration group average (plasma concentration) [1, 11]: 1.52 ng/mL; Low concentration group average (plasma concentration) [1, 12]: 1.00 ng/mL
Fc1ccc(C(OCCN2CCN(CCCc3ccccc3)CC2)c2ccc(F)cc2)cc1 [Vanoxerine, 1-[2-[bis(4-fluorophenyl)methoxy]ethyl]-4-(3-phenylpropyl)piperazine]	–	–	–	–	–	–	–	–	–	–	–	–	–	–	–	–	–	–	–	–	side-effects ([2]; daily repetitive dose of 50 mg): no side-effects should be expected; side-effects ([2]; higher doses of vanoxerine): some effects were seen with regard to concentration difficulties, increase systolic blood pressure, asthenia, and a feeling of drug influence

Source: patent publication US20160304477A1 (LAguna Pharmaceuticals, Inc., priority 2013, published 2016)
